Reference: the supplement of paper PMC10307832

Tests used:
Experiment in all cases: relative viability (nuclei count vs DMSO), 5 days (fraction); higher = more cells survive
[1] = system: NCI-H2009
Procedure, shortened: (§1)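 Lung cancer cell lines were seeded in 1536-well plates and dosed by pin tool the next day, with either a single drug or a fixed anchor-drug dose combined with five library-drug doses (not always all listed) spaced in √10 steps. Five days later, one step fixed the cells and stained their nuclei (final 0.05% Triton X-100, 1% formaldehyde, 1 ug/ml Hoechst), and nuclei were counted on 4× images. Relative viability is the nuclei count in treated wells divided by the count in vehicle wells, and each value is the median of duplicate plates.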

[2] = system: NCI-H2347
Procedure, shortened: as §1

[3] = system: COR-L 105
Procedure, shortened: as §1

[4] = system: NCI-H2023
Procedure, shortened: as §1

[5] = system: NCI-H1792
Procedure, shortened: as §1

[6] = system: HCC-366
Procedure, shortened: as §1

[7] = system: NCI-H1755
Procedure, shortened: as §1

[8] = system: NCI-H23
Procedure, shortened: as §1

[9] = system: HCC-15
Procedure, shortened: as §1

[10] = system: NCI-H1793
Procedure, shortened: as §1

[11] = system: NCI-H1437
Procedure, shortened: as §1

[12] = system: NCI-H650
Procedure, shortened: as §1

[13] = system: NCI-H1915
Procedure, shortened: as §1

[14] = system: LC-2-ad
Procedure, shortened: as §1

[15] = system: PC-14
Procedure, shortened: as §1

[16] = system: NCI-H1395
Procedure, shortened: as §1

[17] = system: COR-L23
Procedure, shortened: as §1

[18] = system: 201T
Procedure, shortened: as §1

[19] = system: EMC-BAC-2
Procedure, shortened: as §1

[20] = system: NCI-H358
Procedure, shortened: as §1

[21] = system: SK-MES-1
Procedure, shortened: as §1

With `Cc1cn(-c2cc(NC(=O)c3ccc(C)c(Nc4nccc(-c5cccnc5)n4)c3)cc(C(F)(F)F)c2)cn1` [Nilotinib] + C[C@]1(O)C[C@@H](c2nc(-c3ccc4ccc(-c5ccccc5)nc4c3)c3c(N)nccn32)C1 [Linsitinib] (partner 1 µM) as the compound, how does the relative viability ([1]; first compound 0.001 µM) read?
Its relative viability is 1.07.

What about the relative viability ([1]; first compound 0.003162 µM) of the same compound?
The relative viability was 1.28.

And the relative viability ([1]; first compound 0.01 µM)?
Its relative viability is 1.22.

What about the relative viability ([1]; first compound 0.03162 µM) of the same compound?
Its relative viability is 1.18.

What about the relative viability ([1]; first compound 0.1 µM) of the same compound?
Its relative viability is 1.15.

What about the relative viability ([2]; first compound 0.001 µM) of the same compound?
Its relative viability is 1.01.

What about the relative viability ([2]; first compound 0.003162 µM) of the same compound?
Its relative viability is 1.11.

And the relative viability ([2]; first compound 0.01 µM)?
The relative viability was 1.1.

What about the relative viability ([2]; first compound 0.03162 µM) of the same compound?
The relative viability was 0.903.

And the relative viability ([2]; first compound 0.1 µM)?
The relative viability was 0.909.

And the relative viability ([3]; first compound 0.001 µM)?
The relative viability was 0.913.

What about the relative viability ([3]; first compound 0.01 µM) of the same compound?
Its relative viability is 1.

What about the relative viability ([3]; first compound 0.03162 µM) of the same compound?
Its relative viability is 0.849.

And the relative viability ([3]; first compound 0.1 µM)?
Its relative viability is 0.823.

And the relative viability ([4]; first compound 0.001 µM)?
The relative viability was 0.74.

What about the relative viability ([4]; first compound 0.003162 µM) of the same compound?
Its relative viability is 0.735.

What about the relative viability ([4]; first compound 0.01 µM) of the same compound?
Its relative viability is 0.798.

And the relative viability ([4]; first compound 0.03162 µM)?
The relative viability was 0.666.

And the relative viability ([4]; first compound 0.1 µM)?
The relative viability was 0.525.

What about the relative viability ([5]; first compound 0.001 µM) of the same compound?
The relative viability was 0.334.

And the relative viability ([5]; first compound 0.01 µM)?
The relative viability was 0.583.

What about the relative viability ([5]; first compound 0.1 µM) of the same compound?
Its relative viability is 0.565.

And the relative viability ([6]; first compound 0.001 µM)?
The relative viability was 0.577.

What about the relative viability ([6]; first compound 0.003162 µM) of the same compound?
The relative viability was 1.33.

And the relative viability ([6]; first compound 0.01 µM)?
The relative viability was 0.857.

And the relative viability ([6]; first compound 0.03162 µM)?
Its relative viability is 0.64.

And the relative viability ([6]; first compound 0.1 µM)?
The relative viability was 0.472.

What about the relative viability ([7]; first compound 0.001 µM) of the same compound?
The relative viability was 1.02.

And the relative viability ([7]; first compound 0.003162 µM)?
Its relative viability is 1.15.

And the relative viability ([7]; first compound 0.01 µM)?
The relative viability was 1.12.

And the relative viability ([7]; first compound 0.03162 µM)?
The relative viability was 1.07.

And the relative viability ([7]; first compound 0.1 µM)?
The relative viability was 0.894.

What about the relative viability ([8]; first compound 0.001 µM) of the same compound?
The relative viability was 0.556.

And the relative viability ([8]; first compound 0.003162 µM)?
The relative viability was 0.686.

What about the relative viability ([8]; first compound 0.01 µM) of the same compound?
The relative viability was 0.713.

And the relative viability ([8]; first compound 0.03162 µM)?
The relative viability was 0.49.

What about the relative viability ([8]; first compound 0.1 µM) of the same compound?
The relative viability was 0.579.

And the relative viability ([9]; first compound 0.001 µM)?
Its relative viability is 0.874.

And the relative viability ([9]; first compound 0.003162 µM)?
Its relative viability is 1.01.

What about the relative viability ([9]; first compound 0.01 µM) of the same compound?
Its relative viability is 0.987.

And the relative viability ([9]; first compound 0.03162 µM)?
Its relative viability is 0.743.

And the relative viability ([9]; first compound 0.1 µM)?
Its relative viability is 0.744.

What about the relative viability ([10]; first compound 0.003162 µM) of the same compound?
The relative viability was 1.09.

And the relative viability ([10]; first compound 0.01 µM)?
Its relative viability is 1.41.

What about the relative viability ([10]; first compound 0.03162 µM) of the same compound?
The relative viability was 0.734.

And the relative viability ([10]; first compound 0.1 µM)?
The relative viability was 0.443.

What about the relative viability ([11]; first compound 0.001 µM) of the same compound?
Its relative viability is 0.879.

And the relative viability ([11]; first compound 0.003162 µM)?
The relative viability was 1.19.

What about the relative viability ([11]; first compound 0.01 µM) of the same compound?
The relative viability was 1.24.

What about the relative viability ([11]; first compound 0.03162 µM) of the same compound?
Its relative viability is 0.747.

And the relative viability ([11]; first compound 0.1 µM)?
Its relative viability is 0.755.

What about the relative viability ([12]; first compound 0.001 µM) of the same compound?
The relative viability was 0.81.

What about the relative viability ([12]; first compound 0.003162 µM) of the same compound?
Its relative viability is 0.778.

What about the relative viability ([12]; first compound 0.01 µM) of the same compound?
The relative viability was 0.925.

And the relative viability ([12]; first compound 0.03162 µM)?
The relative viability was 0.84.

And the relative viability ([12]; first compound 0.1 µM)?
The relative viability was 0.686.

And the relative viability ([13]; first compound 0.001 µM)?
Its relative viability is 1.01.

And the relative viability ([13]; first compound 0.003162 µM)?
The relative viability was 1.09.

What about the relative viability ([13]; first compound 0.03162 µM) of the same compound?
Its relative viability is 1.06.

What about the relative viability ([13]; first compound 0.1 µM) of the same compound?
Its relative viability is 1.09.

What about the relative viability ([14]; first compound 0.001 µM) of the same compound?
The relative viability was 0.862.

And the relative viability ([14]; first compound 0.003162 µM)?
Its relative viability is 0.985.

And the relative viability ([14]; first compound 0.01 µM)?
The relative viability was 1.02.

What about the relative viability ([14]; first compound 0.03162 µM) of the same compound?
Its relative viability is 0.897.

And the relative viability ([14]; first compound 0.1 µM)?
The relative viability was 0.735.

What about the relative viability ([15]; first compound 0.001 µM) of the same compound?
The relative viability was 0.883.

And the relative viability ([15]; first compound 0.003162 µM)?
Its relative viability is 1.05.

What about the relative viability ([15]; first compound 0.01 µM) of the same compound?
The relative viability was 1.07.

What about the relative viability ([15]; first compound 0.03162 µM) of the same compound?
Its relative viability is 0.898.

And the relative viability ([15]; first compound 0.1 µM)?
Its relative viability is 1.01.

What about the relative viability ([16]; first compound 0.001 µM) of the same compound?
Its relative viability is 1.

And the relative viability ([16]; first compound 0.003162 µM)?
Its relative viability is 0.826.

And the relative viability ([16]; first compound 0.01 µM)?
Its relative viability is 1.07.

And the relative viability ([16]; first compound 0.03162 µM)?
Its relative viability is 0.86.

What about the relative viability ([16]; first compound 0.1 µM) of the same compound?
Its relative viability is 0.759.

What about the relative viability ([17]; first compound 0.001 µM) of the same compound?
Its relative viability is 0.777.

And the relative viability ([17]; first compound 0.003162 µM)?
Its relative viability is 1.18.

What about the relative viability ([17]; first compound 0.01 µM) of the same compound?
The relative viability was 1.24.

And the relative viability ([17]; first compound 0.03162 µM)?
Its relative viability is 0.781.

And the relative viability ([17]; first compound 0.1 µM)?
The relative viability was 0.903.

And the relative viability ([18]; first compound 0.001 µM)?
The relative viability was 0.942.

And the relative viability ([18]; first compound 0.003162 µM)?
Its relative viability is 1.06.

What about the relative viability ([18]; first compound 0.01 µM) of the same compound?
Its relative viability is 1.12.

And the relative viability ([19]; first compound 0.001 µM)?
Its relative viability is 0.812.

What about the relative viability ([19]; first compound 0.003162 µM) of the same compound?
Its relative viability is 0.954.

What about the relative viability ([19]; first compound 0.01 µM) of the same compound?
Its relative viability is 1.1.

What about the relative viability ([19]; first compound 0.03162 µM) of the same compound?
The relative viability was 0.66.

What about the relative viability ([19]; first compound 0.1 µM) of the same compound?
The relative viability was 0.839.

What about the relative viability ([20]; first compound 0.001 µM) of the same compound?
Its relative viability is 0.67.

What about the relative viability ([20]; first compound 0.003162 µM) of the same compound?
The relative viability was 0.893.

And the relative viability ([20]; first compound 0.01 µM)?
The relative viability was 0.847.

And the relative viability ([20]; first compound 0.03162 µM)?
The relative viability was 0.474.

What about the relative viability ([20]; first compound 0.1 µM) of the same compound?
Its relative viability is 0.612.

What about the relative viability ([21]; first compound 0.003162 µM) of the same compound?
Its relative viability is 1.29.

What about the relative viability ([21]; first compound 0.01 µM) of the same compound?
Its relative viability is 1.16.

And the relative viability ([21]; first compound 0.03162 µM)?
The relative viability was 1.12.
